Results published in patent US20250388604A1, “Compounds and Their Use as PDE4 Activators” (Mironid Limited, priority 2022, published 2025).

Legend:
[1] = molecular target: T1, human PDE4D5 (long isoform) (Homo sapiens, UniProt Q08499); assay: PDE assay, [3H]cAMP two-step radio-assay, PDE4D5 long isoform activation; format: biochemical; conditions: 100 μM test compound; mean % increase in counts over basal activity
T1 construct: Using Full-Length Human PDE4 Isoforms; Long Forms PDE4D5, PDE4C3, PDE4B1 and Short Form PDE4B2; made in house; cytosol fraction (100,000 g supernatant) of the cell lysate, not purified
T1 sequence (Q08499 1-745 isoform Q08499-6): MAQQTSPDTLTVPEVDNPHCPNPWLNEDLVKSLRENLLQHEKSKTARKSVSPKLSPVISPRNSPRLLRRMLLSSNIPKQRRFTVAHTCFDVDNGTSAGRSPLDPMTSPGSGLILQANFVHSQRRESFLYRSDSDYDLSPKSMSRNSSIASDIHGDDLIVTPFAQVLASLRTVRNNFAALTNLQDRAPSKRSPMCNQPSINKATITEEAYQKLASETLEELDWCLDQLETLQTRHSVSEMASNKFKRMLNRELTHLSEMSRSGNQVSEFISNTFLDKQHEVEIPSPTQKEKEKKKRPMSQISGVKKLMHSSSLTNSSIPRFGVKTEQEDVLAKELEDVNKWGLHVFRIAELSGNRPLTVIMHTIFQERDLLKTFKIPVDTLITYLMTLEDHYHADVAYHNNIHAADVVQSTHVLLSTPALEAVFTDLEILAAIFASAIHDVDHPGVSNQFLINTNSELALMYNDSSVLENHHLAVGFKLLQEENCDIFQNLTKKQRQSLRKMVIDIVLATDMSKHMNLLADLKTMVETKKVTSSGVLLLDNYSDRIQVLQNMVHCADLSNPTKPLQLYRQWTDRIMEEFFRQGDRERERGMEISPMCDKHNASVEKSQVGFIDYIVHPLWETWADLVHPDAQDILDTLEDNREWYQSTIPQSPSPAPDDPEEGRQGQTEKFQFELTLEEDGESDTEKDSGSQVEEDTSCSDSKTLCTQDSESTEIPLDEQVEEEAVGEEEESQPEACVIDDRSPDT
Protocol: One suitable method of detecting whether or not a compound is capable of serving as an activator of a PDE4 long form is using a two-step radio-assay procedure described in Experiment 1. In summary, the method involves incubating a PDE4 long form with a test small molecule activator, together with [^3H]-labelled cAMP to assess alterations in the breakdown of cAMP to the 5′-adenosine monophosphate (5′-AMP) product. A sample of the reaction mixture from such an incubation is subsequently treated with snake venom 5′-nucleotidase to allow conversion of the nucleotide [^3H]-labelled 5′-AMP to the uncharged nucleoside [^3H]-labelled adenosine, which can be separated and quantified to assess PDE4 activity and the effect of the test compound (Thompson, W. J. and Appleman, M. M. Biochemistry 10: 311-316, 1971, with some modifications as described in: Marchmont, R. J. and Houslay, M. D. Biochem J. 187: 381-92, 1980). […]
The cell lysate containing recombinant PDE4D5 was transferred into a centrifuge tube and placed into an ultracentrifuge (BECKMAN COULTER) and spun at high speed (100,000 g) for 30 minutes at 4° C. The cytosol fraction was then collected and its protein amount determined using a BCA protein assay. […]

[2] = test system: m-IMCD3 cells expressing PDE4 long forms; assay: cAMP levels in PGE2-stimulated 3D m-IMCD3 cell culture media; format: cell-based; conditions: Mus musculus, mIMCD3; 3 μM test compound; compared to 100% for (DMSO + PGE2); read-out: cAMP level (% of PGE2-stimulated)
Protocol: HEK 293 and MDCK cells (Public Health England, Cell Culture Collections) were maintained in Dulbecco's Modified Eagle's Medium (DMEM) supplemented with 10% (v/v) fetal bovine serum (FBS) (Seralab), 2 mM L-glutamine and 100 U/mL penicillin streptomycin cocktail (ThermoFisher); termed complete media. Clonal HEK 293 cell lines were maintained in complete media supplemented with 0.6 mg/ml G418 (Enzo Life Sciences). Mouse inner medullary collecting duct (m-IMCD3) cells [American Type Culture Collection (ATCC)] were maintained in media consisting of DMEM/Hams F-12 50/50 Mix (DMEM F12; Corning) supplemented with penicillin streptomycin cocktail (100 U/mL) and FBS (10% v/v) (DMEM F12-10% FBS).
Activation of intracellular PDE4 long forms leads to a reduction of both intracellular cAMP and externalised cAMP (Omar et al., PNAS 116: 13320-13329, 2019). This reduction may be measured in the cell culture media supernatant of 3D cystic cell cultures, such as in the m-IMCD3 cell cyst suppression assay described in Experiment 3.
Following the completion of the m-IMCD3 cell cyst suppression assay (Experiment 3), the cAMP level in the assay media from individual or pooled assay wells was measured using a cAMP ELISA kit (Enzo Life Sciences) or a LANCE Ultra cAMP kit (PerkinElmer) according to the manufacturer's instructions.

[3] = molecular target: T2, human PDE4B2 (short isoform) (Homo sapiens, UniProt Q07343); assay: PDE assay, [3H]cAMP two-step radio-assay, PDE4B2 short isoform activation; format: biochemical; conditions: 100 μM test compound; mean % increase in counts over basal activity
T2 construct: the full length human PDE4B2 short isoform; made in house
T2 sequence (Q07343 1-564 isoform Q07343-2): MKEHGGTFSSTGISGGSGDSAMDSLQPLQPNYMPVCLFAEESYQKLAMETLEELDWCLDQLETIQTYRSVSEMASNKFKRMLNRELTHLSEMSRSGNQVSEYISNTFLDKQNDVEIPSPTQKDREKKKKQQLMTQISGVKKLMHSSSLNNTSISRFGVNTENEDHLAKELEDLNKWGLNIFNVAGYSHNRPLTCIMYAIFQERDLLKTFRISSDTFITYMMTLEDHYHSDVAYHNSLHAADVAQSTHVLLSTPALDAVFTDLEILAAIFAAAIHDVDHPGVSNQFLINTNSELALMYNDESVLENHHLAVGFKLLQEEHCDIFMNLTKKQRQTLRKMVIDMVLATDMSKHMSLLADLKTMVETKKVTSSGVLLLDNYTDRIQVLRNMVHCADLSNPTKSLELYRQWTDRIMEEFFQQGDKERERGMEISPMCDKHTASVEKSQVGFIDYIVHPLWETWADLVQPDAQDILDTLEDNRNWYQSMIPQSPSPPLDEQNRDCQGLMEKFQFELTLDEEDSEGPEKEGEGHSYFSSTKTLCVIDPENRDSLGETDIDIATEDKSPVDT

[4] = test system: m-IMCD3 cells; assay: Inhibition of PGE2-stimulated in vitro cyst formation in m-IMCD3 cells; format: cell-based, mouse; conditions: Mus musculus, mIMCD3, 144 h, 3 μM; mean cyst area, 100% for (DMSO + PGE2) and 0% for DMSO control; 6 days of culture; read-out: % Cyst area after incubation with 3 μM test compound
In short: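 Mean cyst area after 6 days, expressed relative to DMSO+PGE2 (100%) and DMSO alone (0%), from z-stack images. Mouse m-IMCD3 spheroids grew in collagen I/Matrigel gels and received PGE2 (100 nM final) with test compound (0.1% DMSO) starting 18–24 h post-plating, media refreshed at day 2 or 3.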

SMILES | % increase in PDE4D5 (long isoform) activity at 100 μM [1] [%] | activity at 3 µM [2] [%] | % increase in PDE4B2 (short isoform) activity at 100 μM [3] [%] | activity at 3 µM [4] [%]
O=S(=O)(NC1CCCC1)N1CCc2nc(N3C4CCC3CNC4)sc2C1 [Example 108, 2-(3,8-diazabicyclo[3.2.1]octan-8-yl)-N-cyclopentyl-6,7-dihydrothiazolo[5,4-c]pyridine-5(4H)-sulfonamide] | 22 | 53 |  | 
O=C(CC1CCCC1)N1CCc2nc(N3CCN4CCC[C@H]4C3)sc2C1 [Example 271, (S)-2-cyclopentyl-1-(2-(hexahydropyrrolo[1,2-a]pyrazin-2(1H)-yl)-6,7-dihydrothiazolo[5,4-c]pyridin-5(4H)-yl)ethan-1-one] | 28 | 42 | −15 | 4
CCN1CC2CCC(C1)N2c1nc2c(s1)CN(S(=O)(=O)Cc1ccc(F)cc1)CC2 [Example 286, 2-(3-ethyl-3,8-diazabicyclo[3.2.1]octan-8-yl)-5-((4-fluorobenzyl)sulfonyl)-4,5,6,7-tetrahydrothiazolo[5,4-c]pyridine] |  | 52 |  | -2
O=S(=O)(Cc1ccccc1)N1CCc2nc(N3C4CCC3CNC4)sc2C1 [Example 288, 5-(benzylsulfonyl)-2-(3,8-diazabicyclo[3.2.1]octan-8-yl)-4,5,6,7-tetrahydrothiazolo[5,4-c]pyridine] |  | 34 |  | 7
CC(C)N1CC2CCC(C1)N2c1nc2c(s1)CN(C(=O)CC1CCCC1)CC2 [Example 290, 2-cyclopentyl-1-(2-(3-isopropyl-3,8-diazabicyclo[3.2.1]octan-8-yl)-6,7-dihydrothiazolo[5,4-c]pyridin-5(4H)-yl)ethan-1-one] |  | 35 |  | -9
CCN1CC2CCC(C1)N2c1nc2c(s1)CN(C(=O)CC1CCCC1)CC2 [Example 291, 2-cyclopentyl-1-(2-(3-ethyl-3,8-diazabicyclo[3.2.1]octan-8-yl)-6,7-dihydrothiazolo[5,4-c]pyridin-5(4H)-yl)ethan-1-one] |  | 45 |  | 3
O=C(N[C@H]1CCOc2ccccc21)N1CCc2nc(N3C4CCC3CNC4)sc2C1 [Example 293, 2-(3,8-diazabicyclo[3.2.1]octan-8-yl)-N—((S)-chroman-4-yl)-6,7-dihydrothiazolo[5,4-c]pyridine-5(4H)-carboxamide] |  | 36 |  | 4
CCN1CC2CCC(C1)N2c1nc2c(s1)CN(C(=O)N[C@H]1CCOc3ccccc31)CC2 [Example 294, N—((S)-chroman-4-yl)-2-(3-ethyl-3,8-diazabicyclo[3.2.1]octan-8-yl)-6,7-dihydrothiazolo[5,4-c]pyridine-5(4H)-carboxamide] |  | 39 |  | -5
CCN1CCN(c2nc3c(s2)CN(C(=O)N[C@H]2CCOc4ccccc42)CC3)CC1 [Example 297, (S)—N-(chroman-4-yl)-2-(4-ethylpiperazin-1-yl)-6,7-dihydrothiazolo[5,4-c]pyridine-5(4H)-carboxamide] |  | 45 |  | 9
CC(C)N1CC2CCC(C1)N2c1nc2c(s1)CN(C(=O)COc1ccc(F)cc1)CC2 [Example 298, 2-(4-fluorophenoxy)-1-(2-(3-isopropyl-3,8-diazabicyclo[3.2.1]octan-8-yl)-6,7-dihydrothiazolo[5,4-c]pyridin-5(4H)-yl)ethan-1-one] |  | 48 |  | -7
CCN1CC2CCC(C1)N2c1nc2c(s1)CN(C(=O)NCc1ccc(F)cc1)CC2 [Example 300, 2-(3-ethyl-3,8-diazabicyclo[3.2.1]octan-8-yl)-N-(4-fluorobenzyl)-6,7-dihydrothiazolo[5,4-c]pyridine-5(4H)-carboxamide] |  | 48 |  | -3
CCN1CC2CCC(C1)N2c1nc2c(s1)CN(C(=O)COc1ccc(F)cc1)CC2 [Example 302, 1-(2-(3-ethyl-3,8-diazabicyclo[3.2.1]octan-8-yl)-6,7-dihydrothiazolo[5,4-c]pyridin-5(4H)-yl)-2-(4-fluorophenoxy)ethan-1-one] |  | 48 |  | 5
CCCN1CC2CCC(C1)N2c1nc2c(s1)CN(C(=O)COc1ccc(F)cc1)CC2 [Example 303, 2-(4-fluorophenoxy)-1-(2-(3-propyl-3,8-diazabicyclo[3.2.1]octan-8-yl)-6,7-dihydrothiazolo[5,4-c]pyridin-5(4H)-yl)ethan-1-one] |  | 55 |  | 0
CCN1CCN(c2nc3c(s2)CN(S(=O)(=O)Cc2ccc(F)cc2)CC3)CC1 [Example 304, 2-(4-ethylpiperazin-1-yl)-5-((4-fluorobenzyl)sulfonyl)-4,5,6,7-tetrahydrothiazolo[5,4-c]pyridine] |  | 47 |  | 13
